Broadly, the IC50 is the concentration that inhibits the measured activity by half. Read a low IC50 as higher potency.

Among the data in BindingDB's records for doi:10.1021/ml300405d (Therachem Research Medilab (India), 2013) are IC50 values, retold here.

This assay deals with Tyrosine-protein kinase SYK (Homo sapiens) (UniProt P43405). Put plainly: Inhibition of human Gst-tagged Syk expressed in sf9 cells.
On to `COc1ccc(Nc2nc(N3CCC(C(=O)Nc4ccc(C(=O)O)cc4)C3)nc3scnc23)nc1OC` (stereo not drawn), for which the IC50 was found to be 6150 nM.
`COc1ccc(Nc2nc(N3CCCC(C(=O)Nc4ccc(C(=O)O)c(O)c4)C3)nc3scnc23)cc1OC` (stereo not drawn) displayed an IC50 of 71 nM.
Then `CNC(=O)c1ccc(NC(=O)c2cccc(-c3nc(Nc4ccc(OC)c(OC)c4)c4ncsc4n3)c2)cc1`, with 71 nM.
